In patent publication US8987195B2 (priority 2012, dated 2015):
pEC50: −log10 of the molar value. Read-outs that look alike come from different tables or passages of the source.

Experiments:
[1] = target: HCV NS3/4A protease genotype 1b (Hepatitis C virus genotype 1b, UniProt P26663); test: HCV NS3/4A protease time-resolved fluorescence (TRF) assay, Ki against genotype 1b; assay type: biochemical; details: IC50 [gt-1b] (nM), NS3/4A genotype 1b, enzyme 0.2 nM
How it was run: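 Time-resolved fluorescence readout of NS3/4A cleavage of 25 nM europium-labelled peptide over 2.5 h at room temperature, enzyme levels set for signal/background 10–30 (0.2, 0.4, 0.025 nM for 1b, A156T, 3a). Ki by IC50=Ki(1+[S]/KM).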

HCV genotype 1b replicon = test: HCV replicon assay, genotype 1b replicon EC50; assay type: cell-based, Hepatitis C virus; details: Hepatitis C virus, genotype 1b replicon, read-out: EC50 [gt-1b]
How it was run: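 Stable neomycin-selected genotype 1b replicon cells, some carrying luciferase:Neo^r fusion, plated without G418 with a compound dilution series and incubated 24-48 h. Read-out was RNA (^32P-probe protection or TaqMan, normalized to cyclophilin A) or luciferase activity. EC50 from four-parameter fit as percent of DMSO control.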

| SMILES | IC50 [1] [nM] | pEC50 (HCV genotype 1b replicon) | IC50 ([1]; K+ salt) [nM] | pEC50 (HCV genotype 1b replicon; K+ salt) |
| --- | --- | --- | --- | --- |
| Cc1nc2ccccc2c2c1O[C@]1(CC2)C[C@H]2C(=O)N[C@]3(C(=O)NS(=O)(=O)C4(C)CC4)C[C@H]3/C=C\CCCCC[C@H](NC(=O)N3CCCC3)C(=O)N2C1 [Example 61, (2R,6S,12Z,13aS,14aR,16aS)-5′-methyl-N-[(1-methylcyclopropyl)sulfonyl]-5,16-dioxo-6-[(pyrrolidin-1-ylcarbonyl)amino]-1,1′,2′,6,7,8,9,10,11,13a,14,15,16,16a-tetradecahydrospiro[cyclopropa[e]pyrrolo[1,2-a][1,4]diazacyclopentadecine-2,3′-pyrano[2,3-c]quinoline]-14a(5H)-carboxamide] | 0.015 | 7.91 |  |  |
| COc1ccc2nc(C(F)(F)F)c3c(c2c1)C=C[C@]1(CN2C(=O)[C@@H](NC(=O)OC(C)(C)C)CCCCC/C=C\[C@@H]4C[C@@]4(C(=O)NS(=O)(=O)C4(C)CC4)NC(=O)[C@@H]2C1C)O3 (stereo partly drawn) [Example 62, tert-Butyl ((2S,6S,13aS,14aR,16aS,Z)-9′-methoxy-1-methyl-14a-(((1-methylcyclopropyl)sulfonyl)carbamoyl)-5,16-dioxo-5′-(trifluoromethyl)-3,5,6,7,8,9,10,11,13a, 14,14a,15,16,16a-tetradecahydro-1H-spiro[cyclopropa[e]pyrrolo[1,2-a][1,4]diazacyclopentadecine-2,3′-pyrano[2,3-c]quinolin]-6-yl)carbamate] | 0.016 | 9.59 |  |  |
| COc1ccc2nc(C(F)(F)F)c3c(c2c1)[C@](C)(F)C[C@]1(C[C@H]2C(=O)N[C@]4(C(=O)NS(=O)(=O)C5(C)CC5)C[C@H]4/C=C\CCCCC[C@H](NC(=O)OC(C)(C)C)C(=O)N2C1)O3 [Example 63, tert-Butyl ((1′R,2S,6S,13aS,14aR,16aS,Z)-1′-fluoro-9′-methoxy-1-methyl-14a-(((1-methylcyclopropyl)sulfonyl)carbamoyl)-5,16-dioxo-5′-(trifluoromethyl)-1′,2′,3,5,6,7,8,9,1011,13a,14,14a,15,16,16a-hexadecahydro-1H-spiro[cyclopropa[e]pyrrolo[1,2-a][1,4]diazacyclopentadecine-2,3′-pyrano[2,3-c]quinolin]-6-yl)carbamate] | 0.007 | 9.61 |  |  |
| COc1ccc2nc(C(F)(F)F)c3c(c2c1)[C@@H](N1CCOCC1)C[C@]1(C[C@H]2C(=O)N[C@]4(C(=O)NS(=O)(=O)C5(C)CC5)C[C@H]4/C=C\CCCCC[C@H](NC(=O)OC(C)(C)C)C(=O)N2C1)O3 [Example 65, tert-Butyl((1′S,2R,6S,13aS,14aR,16aS,Z)-9′-methoxy-14a-(((1-methylcyclopropyl)sulfonyl)carbamoyl)-1′-morpholino-5,16-dioxo-5′-(trifluoromethyl) -1′,2′,3,5,6,7,8,9,10,11,13a,14,14a,15,16,16a-hexadecahydro-1H-spiro[cyclopropa[e]pyrrolo[1,2-a][1,4]diazacyclopentadecine-2,3′-pyrano[2,3-c]quinolin]-6-yl)carbamate] | 0.011 | 9.83 |  |  |
| COc1ccc2nc(C(F)(F)F)c3c(c2c1)[C@H](N1CCOCC1)C[C@]1(C[C@H]2C(=O)N[C@]4(C(=O)NS(=O)(=O)C5(C)CC5)C[C@H]4/C=C\CCCCC[C@H](NC(=O)OC(C)(C)C)C(=O)N2C1)O3 [Example 66, tert-Butyl((1′R,2R,6S,13aS,14aR,16aS,Z)-9′-methoxy-14a-(((1-methylcyclopropyl)sulfonyl)carbamoyl)-1′-morpholino-5,16-dioxo-5′-(trifluoromethyl) -1′,2′,3,5,6,7,8,9,10,11,13a,14,14a,15,16,16a-hexadecahydro-1H-spiro[cyclopropa[e]pyrrolo[1,2-α][1,4]diazacyclopentadecine-2,3′-pyrano[2,3-c]quinolin]-6-yl)carbamate] | 0.011 | 9.83 |  |  |
| CC(C)(C)OC(=O)N[C@H]1CCCCC/C=C\C2CC2(C(=O)NS(=O)(=O)C2(C)CC2)NC(=O)C2C[C@]3(CCc4c(c(C5CC5)nc5ccc(F)cc45)O3)CN2C1=O (stereo partly drawn) [Example 68, tert-butyl [(2R,6S,12Z)-5′-cyclopropyl-9′-fluoro-14a-{[(1-methylcyclopropyl)sulfonyl]carbamoyl}-5,16-dioxo-1,1′,2′,5,6,7,8,9,10,11,13a,14,14a,15,16,16a-hexadecahydrospiro[cyclopropa[e]pyrrolo[1,2-a][1,4]diazacyclopentadecine-2,3′-pyrano[2,3-c]quinolin]-6-yl]carbamate] | 0.016 | 9.01 |  |  |
| CC(C)(C)OC(=O)N[C@H]1CCCCC/C=C\C2CC2(C(=O)NS(=O)(=O)C2(C)CC2)NC(=O)C2C[C@]3(CCc4c(c(C5CC5)nc5c(F)cccc45)O3)CN2C1=O (stereo partly drawn) [Example 69, tert-butyl [(2R,6S,12Z)-5′-cyclopropyl-7′-fluoro-14a-{[(1-methylcyclopropyl)sulfonyl]carbamoyl}-5,16-dioxo-1,1′,2′,5,6,7,8,9,10,11,13a,14,14a,15,16,16a-hexadecahydrospiro[cyclopropa[e]pyrrolo[1,2-a][1,4]diazacyclopentadecine-2,3′-pyrano[2,3-c]quinolin]-6-yl]carbamate] |  |  | 0.012 | 9.09 |
| COc1ccc2c3c(c(C4CC4)nc2c1)O[C@]1(CC3)CC2C(=O)NC3(C(=O)NS(=O)(=O)C4(C)CC4)CC3/C=C\CCCCC[C@H](NC(=O)OC(C)(C)C)C(=O)N2C1 (stereo partly drawn) [Example 70, tert-butyl [(2R,6S,12Z)-5′-cyclopropyl-8′-methoxy-14a-{[(1-methylcyclopropyl)sulfonyl]carbamoyl}-5,16-dioxo-1,1′,2′,5,6,7,8,9,10,11,13a,14,14a,15,16,16a-hexadecahydrospiro[cyclopropa[e]pyrrolo[1,2-a][1,4]diazacyclopentadecine-2,3′-pyrano[2,3-c]quinolin]-6-yl]carbamate] |  |  | 0.028 | 8.86 |
| Cc1nc2cc(F)ccc2c2c1O[C@]1(CC2)C[C@H]2C(=O)N[C@]3(C(=O)NS(=O)(=O)C4(C)CC4)C[C@H]3/C=C\CCCCC[C@H](NC(=O)OC(C)(C)C)C(=O)N2C1 [Example 71, tert-butyl [(2R,6S,12Z,13aS,14aR,16aS)-8′-fluoro-5′-methyl-14a-{[(1-methylcyclopropyl)sulfonyl]carbamoyl}-5,16-dioxo-1,1′,2′,5,6,7,8,9,10,11,13a,14,14a,15,16,16a-hexadecahydrospiro[cyclopropa[e]pyrrolo[1,2-a][1,4]diazacyclopentadecine-2,3′-pyrano[2,3-c]quinolin]-6-yl]carbamate] |  |  | 0.023 | 9.20 |
| CC(C)(C)OC(=O)N[C@H]1CCCCC/C=C\[C@@H]2C[C@@]2(C(=O)NS(=O)(=O)C2(C)CC2)NC(=O)[C@@H]2C[C@@]3(CCc4c(ccc5ccccc45)O3)CN2C1=O [Example 72, tert-butyl [(3S,6′S,12′Z,13a′S,14a′R,16a′S)-14a′-{[(1-methylcyclopropyl)sulfonyl]carbamoyl}-5′,16′-dioxo-1,1′,2,5′,6′,7′,8′,9′,10′,11′,13a′,14′,14a′,15′,16′,16a′-hexadecahydrospiro[benzo[f]chromene-3,2′-cyclopropa[e]pyrrolo[1,2-a][1,4]diazacyclopentadecin]-6′-yl]carbamate] | 0.665 | 7.62 |  |  |
| CC(C)(C)OC(=O)N[C@H]1CCCCC/C=C\[C@@H]2C[C@@]2(C(=O)NS(=O)(=O)C2(C)CC2)NC(=O)[C@@H]2C[C@]3(CCc4c(ccc5ccccc45)O3)CN2C1=O [Example 73, tert-butyl [(3R,6′S,12′Z,13a′S,14a′R,16a′S)-14a′-{[(1-methylcyclopropyl)sulfonyl]carbamoyl}-5′,16′-dioxo-1,1′,2,5′,6′,7′,8′,9′,10′,11′,13a′,14′,14a′,15′,16′,16a′-hexadecahydrospiro[benzo[f]chromene-3,2′-cyclopropa[e]pyrrolo[1,2-a][1,4]diazacyclopentadecin]-6′-yl]carbamate] | 0.12 | 8.77 |  |  |
| Cc1nc2ccccc2c2c1O[C@@]1(CC2)C[C@H]2C(=O)N[C@]3(C(=O)NS(=O)(=O)C4(C)CC4)C[C@H]3/C=C\CCCCC[C@H](NC(=O)OC(C)(C)C)C(=O)N2C1 [Example 75, tert-butyl [(2S,6S,12Z,13aS,14aR,16a5)-5′-methyl-14a-{[(1-methylcyclopropyl)sulfonyl]carbamoyl}-5,16-dioxo-1,1′,2′,5,6,7,8,9,10,11,13a,14,14a,15,16,16a-hexadecahydrospiro[cyclopropa[e]pyrrolo[1,2-a][1,4]diazacyclopentadecine-2,3′-pyrano[2,3-c]quinolin]-6-yl]carbamate] | 0.022 | 8.13 |  |  |
| CC(C)NC(=O)N[C@H]1CCCCC/C=C\[C@@H]2C[C@@]2(C(=O)NS(=O)(=O)C2(C)CC2)NC(=O)[C@@H]2C[C@]3(CCc4c(c(-c5cccc(F)c5)nc5ccccc45)O3)CN2C1=O [Example 85, (2R,6S,12Z,13aS,14aR,16aS)-5′-(3-fluorophenyl)-N-[(1-methylcyclopropyl)sulfonyl]-5,16-dioxo-6-[(propan-2-ylcarbamoyl)amino]-1,1′,2′,6,7,8,9,10,11,13a,14,15,16,16a-tetradecahydrospiro[cyclopropa[e]pyrrolo[1,2-a][1,4]diazacyclopentadecine-2,3′-pyrano[2,3-c]quinoline]-14a(5R)-carboxamide] | 0.013 | 8.88 |  |  |
